These results are taken from patent US11186581B2, “2-(1,3-dimethyl-2,6-dioxo-1,2,3,6-tetrahydro-7H-purin-7-yl)-N-(6-(2-hydroxyphenyl)pyridazin-3-yl)acetamide as a Wnt pathway modulator” (Agency for Science, Technology and Research, priority 2017, dated 2021).

The test has as its system HEK293-STF3A cells. Nature of the test: STF3A assay (Wnt reporter luciferase). The following applies: Homo sapiens, 24 h, 1 day of treatment, read-out: IC50 activities on STF3A cells. Format: cell-based. As to the method: HEK293-STF cell line was modified from Human embryonic kidney cell line HEK293 transfected with the STF reporter. HEK293-STF3 A cell line was further modified from HEK293-STF cell line to express Wnt3A. This cell line was used to identify compounds that regulate either early or late signalling components of the Wnt pathway. L-Wnt3 A (ATCC, #CRL-2647) cell line was used for providing Wnt3 A conditioned media. The three cell lines were grown in DMEM (Dulbecco's Modified Eagle Medium) with 10% FBS (fetal bovine serum) incubated in 37° C. with 5% CO2.
2×10^4 HEK293-STF3A cells in 75 μl culture media were seeded in each well of white 96 well plates (Greiner #655098) and incubated overnight at 37° C. 25 μl serially diluted compound was added to the cells to give final concentration of 50 μM to 1.5 nM. After 1 day of treatment, 100 μl of Steady-Glo® Luciferase Assay reagent (#E2520, Promega) was added to each well and incubated for 10 minutes at room temperature. Luminescence was measured using Tecan Safire2® plate reader.

A value given as a limit tells only on which side of the number the result lay.

Usually IC50 stands for the midpoint of a concentration-inhibition curve. Consider `COc1ccccc1-c1ccc(NC(=O)Cn2cnc3c2c(=O)n(C)c(=O)n3C)nn1` [Compound 2, reference compound], for which the IC50 was more than 10 µM.
